# Laboratory results as given in PMC9569995, “Study of Biological Activities and ADMET-Related Properties of Salicylanilide-Based Peptidomimetics” (International Journal of Molecular Sciences, 2022).
# Several values for one entry are separate records, joined by “and”; a condition that tells them apart may be missing. Identical values can stand only once. Like-named read-outs stand apart in the source and are kept apart here.
# Experiments:
# [1] = tested on: vancomycin-resistant E. faecalis VRE 342B; test: In vitro antibacterial evaluation, MIC by microtitration broth method; conditions: Enterococcus faecalis, 24 h
# [2] = tested on: vancomycin-resistant E. faecalis VRE 342B; test: Determination of minimum bactericidal concentrations (agar aliquot subculture); conditions: Enterococcus faecalis
# [3] = tested on: M. smegmatis ATCC 700084; test: In vitro antimycobacterial evaluation, MIC (broth dilution micro-method); type: cell-based, Mycobacterium smegmatis
# Protocol: For M. smegmatis, the broth dilution micro-method in Middlebrook 7H9 medium (Difco) supplemented with ADC Enrichment (Difco) was used. […] Bacterial inocula were prepared by transferring colonies from culture to sterile water. The cell density was adjusted to 0.5 McFarland units using a densitometer (Densi-La-Meter, LIAP, Riga, Latvia). The final inoculum was made by 1:1000 dilution of the suspension with sterile water. Drug-free controls, sterility controls, and controls consisting of medium and DMSO alone were included. The determination of results was performed visually after three days of static incubation in the darkness at 37 °C in an aerobic atmosphere.
# [4] = tested on: Clostridium perfringens; conditions: cited from earlier work
# [5] = tested on: Enterococcus faecalis ATCC 29212; test: Determination of minimum bactericidal concentrations (agar aliquot subculture); conditions: ATCC29212
# [6] = tested on: Mycobacterium kansasii; conditions: cited from earlier work
# [7] = tested on: vancomycin-resistant E. faecalis VRE 368; test: In vitro antibacterial evaluation, MIC by microtitration broth method; conditions: Enterococcus faecalis, 24 h
# [8] = tested on: vancomycin-resistant E. faecalis VRE 725B; test: Determination of minimum bactericidal concentrations (agar aliquot subculture); conditions: Enterococcus faecalis
# [9] = tested on: methicillin-resistant S. aureus SA 3202; test: as above; conditions: Staphylococcus aureus
# [10] = tested on: Bacillus cereus; conditions: cited from earlier work
# [11] = tested on: Enterococcus faecalis ATCC 29212; test: In vitro antibacterial evaluation, MIC by microtitration broth method; conditions: ATCC29212, 24 h
# [12] = tested on: vancomycin-resistant E. faecalis VRE 368; test: Determination of minimum bactericidal concentrations (agar aliquot subculture); conditions: Enterococcus faecalis
# [13] = tested on: methicillin-resistant S. aureus SA 630; test: as above; conditions: Staphylococcus aureus
# [14] = tested on: methicillin-resistant S. aureus 63718; test: as above; conditions: Staphylococcus aureus
# [15] = tested on: Staphylococcus aureus ATCC 29213; test: as above; conditions: ATCC29213
# [16] = tested on: methicillin-resistant S. aureus SA 630; test: In vitro antibacterial evaluation, MIC by microtitration broth method; conditions: Staphylococcus aureus, 24 h
# [17] = tested on: human monocytic leukemia cell line THP-1; test: In vitro cell viability analysis (CCK-8); type: cell-based; conditions: ± SD, n = 6, medium with 10% FBS, 24 h
# Protocol: Human monocytic leukemia THP-1 cells obtained from the European Collection of Cell Cultures (ECACC, Salisbury, UK) were used for in vitro antiproliferative assays. They were routinely cultured in Roswell Park Memorial Institute RPMI 1640 medium supplemented with 10% fetal bovine serum (FBS), 2% L-glutamine, 1% penicillin, and streptomycin (all from Sigma-Aldrich) at 37 °C with 5% CO2. The cells were incubated in a complete medium (i.e., containing FBS) with test compounds at 37 °C with 5% CO2 for 24 h, similarly as we described previously. The effect of the test compounds dissolved in DMSO on cell viability was determined using a Cell Counting Kit-8 (CCK-8; Sigma) according to the manufacturer’s instructions.
# [18] = tested on: Mycobacterium tuberculosis H37Ra/ATCC 25177; test: In vitro antimycobacterial evaluation, MIC (alamarBlue); conditions: MT; 14 days, 37 °C
# [19] = tested on: methicillin-resistant S. aureus SA 3202; test: In vitro antibacterial evaluation, MIC by microtitration broth method; conditions: Staphylococcus aureus, 24 h
# [20] = Lipophilicity determination by HPLC; type: physicochemical; conditions: for log D6.5: HPLC C18, MeOH 72%/acetate-buffered saline pH 6.5 28%; for log D7.4: HPLC C18, MeOH 72%/acetate-buffered saline pH 7.4 28%; for log k: logarithm of capacity factor, HPLC C18, MeOH 72%/H2O 28%
# Description: . A chromatographic column Symmetry® C18 5 μm, 4.6 × 250 mm, Part No. W21751W016 (Waters Corp, Milford, MA, USA) was used. The HPLC separation process was monitored by ChemStation for LC 3D systems (Agilent Technologies). Isocratic elution by a mixture of MeOH (HPLC grade, 72%) and H2O-HPLC Mili-Q grade (28%) as a mobile phase was used for the determination of capacity factor k. Isocratic elution by a mixture of MeOH (HPLC grade, 72%) and acetate-buffered saline (pH 7.4 and pH 6.5) (28%) as a mobile phase was used for the determination of distribution coefficient expressed as D7.4 and D6.5. The total flow of the column was 1.0 mL/min, injection was 20 μL, column temperature was 40 °C, and sample temperature was 10 °C. The detection wavelength of 210 nm was chosen. A KI methanolic solution was used for the determination of the dead times (tD). Retention times (tR) were measured in minutes. The capacity factors k were calculated according to the formula k = (tR − tD)/tD, where tR is the retention time of the solute, and tD is the dead time obtained using an unretained analyte. The distribution coefficients DpH were calculated according to the formula DpH = (tR − tD)/tD. Each experiment was repeated three times.
# [21] = tested on: methicillin-resistant S. aureus 63718; test: In vitro antibacterial evaluation, MIC by microtitration broth method; conditions: Staphylococcus aureus, 24 h
# [22] = tested on: vancomycin-resistant E. faecalis VRE 725B; test: as above; conditions: Enterococcus faecalis, 24 h
# [23] = tested on: M. smegmatis; conditions: cited from earlier work
# [24] = tested on: Staphylococcus aureus ATCC 29213; test: In vitro antibacterial evaluation, MIC by microtitration broth method; conditions: ATCC29213, 24 h
# [25] = tested on: S. aureus ATCC 29123; test: Crystal violet uptake (membrane permeability); conditions: 4× MIC, 1 h; compared to growth control and 1% Tween 20
# [26] = tested on: S. aureus ATCC 29213; test: MTT assay of bacterial viability (respiration); conditions: for Conc.: lowest multiple of MBC with at least 70% inhibition of S. aureus viability / Conc.: lowest multiple of MIC with at least 70% inhibition of S. aureus viability: MTT, 24 h
# [27] = tested on: methicillin-resistant S. aureus 63718; parameters: method as in PMID 26079401; conditions: MRSA 63718 (VA2-MRSA); cited from earlier work
# [28] = Mycolicibacterium smegmatis, ATCC700084, 72 h
Compound,MIC [1],MBC [2],"MIC [3, 28]",MBC [5],MIC [7],MBC [8],MBC [9],MIC [11],MBC [12],MBC [13],MBC [14],MBC [15],MIC [16],IC50 [17],MIC [18],MIC [19],log D6.5 [20],MIC [21],MIC [22],MIC [24],also measured
"CC(C)[C@H](NC(=O)c1cc(Cl)ccc1O)C(=O)Nc1ccc(C(F)(F)F)cc1 [3c, 5-Chloro-2-hydroxy-N-[(2S)-3-methyl-1-oxo-1-{[4-(trifluoromethyl)phenyl]amino}butan-2-yl]benzamide]",38.6 µM,38.6 µM,77.1 µM,38.6 µM,38.6 µM,38.6 µM,4.82 µM,38.6 µM,38.6 µM,4.82 µM,9.64 µM,4.82 µM,4.82 µM,> 10 µM,77.1 n.d. µM,4.82 µM,0.973,4.82 µM,38.6 µM,2.41 µM,MIC [4]: 4.82 µM; MIC [6]: 38.6 µM; MIC [10]: 2.41 µM; log D7.4 [20]: 0.934; log k [20]: 1.081; MIC [23]: 77.1 µM
"CSCC[C@H](NC(=O)c1cc(Cl)ccc1O)C(=O)Nc1ccc(C(F)(F)F)cc1 [3e, 5-Chloro-2-hydroxy-N-[(2S)-4-(methylsulfanyl)-1-oxo-1-{[4-(trifluoromethyl)phenyl]amino}butan-2-yl]benzamide]",35.8 µM,35.8 µM,35.8 µM,35.8 µM,17.9 µM,35.8 µM,8.95 µM,17.9 µM,35.8 µM,8.95 µM,8.95 µM,2.24 µM,4.48 µM,> 10 µM,35.8 µM and 35.8 n.d. µM,8.95 µM,1.021,8.95 µM,35.8 µM,2.24 µM,"MIC ([3]; MS, three days, 37 °C): 35.8 n.d. µM; effect on plasma membrane permeability (crystal violet uptake) [25]: did not affect plasma membrane permeability; log D7.4 [20]: 0.963; log k [20]: 1.076; Conc.: lowest multiple of MBC with at least 70% inhibition of S. aureus viability [26]: 2× MIC (2× MBC); Conc.: lowest multiple of MIC with at least 70% inhibition of S. aureus viability [26]: 2× MIC (2× MBC); S. aureus Viability Inhibition ([26]; at 2× MIC (2× MBC)): 94% and 94.6%"
CC(C)C[C@H](NC(=O)c1cc(Cl)ccc1O)C(=O)Nc1ccc(C(F)(F)F)cc1 [3f],,18.7 µM,18.7 µM,9.33 µM,9.33 µM,37.3 µM,1.17 µM,4.66 µM,18.7 µM,1.17 µM,0.07 µM,1.17 µM,1.17 µM,1.9 ± 1.1 µM,18.7 µM and 18.7 n.d. µM,1.17 µM,1.256,0.07 µM,4.66 µM,1.17 µM,"MIC ([3]; MS, three days, 37 °C): 18.7 n.d. µM; effect on plasma membrane permeability (crystal violet uptake) [25]: did not affect plasma membrane permeability; log D7.4 [20]: 1.161; log k [20]: 1.266; Conc.: lowest multiple of MBC with at least 70% inhibition of S. aureus viability [26]: 1× MIC (1× MBC); Conc.: lowest multiple of MIC with at least 70% inhibition of S. aureus viability [26]: 1× MIC (1× MBC); S. aureus Viability Inhibition ([26]; at 1× MIC (1× MBC)): 95.3%; viability of bacterial cells ([26]; at their MIC value or below): less than 70%"
"CC1(C)S[C@@H]2[C@H](NC(=O)[C@H](N)c3ccccc3)C(=O)N2[C@H]1C(=O)O [APC, ampicillin, reference compound]",11.5 µM,11.5 µM,,2.81 µM,11.5 µM,11.5 µM,> 45.8 µM,2.81 µM,11.5 µM,> 45.8 µM,> 45.8 µM,> 5.72 µM,45.8 µM,,,45.8 µM,,45.8 µM,11.5 µM,5.72 µM,Conc.: lowest multiple of MBC with at least 70% inhibition of S. aureus viability [26]: 8× MIC (>8× MBC); Conc.: lowest multiple of MIC with at least 70% inhibition of S. aureus viability [26]: 8× MIC (>8× MBC); S. aureus Viability Inhibition ([26]; at 8× MIC (>8× MBC)): 90.0%
CN[C@H](CC(C)C)C(=O)N[C@H]1C(=O)N[C@@H](CC(N)=O)C(=O)N[C@H]2C(=O)N[C@H]3C(=O)N[C@H](C(=O)N[C@H](C(=O)O)c4cc(O)cc(O)c4-c4cc3ccc4O)[C@H](O)c3ccc(c(Cl)c3)Oc3cc2cc(c3O[C@@H]2O[C@H](CO)[C@@H](O)[C@H](O)[C@H]2O[C@H]2C[C@](C)(N)[C@H](O)[C@H](C)O2)Oc2ccc(cc2Cl)[C@H]1O [vancomycin],,,,,,,,,,,,,,,,,,,,,MIC [27]: 2 µg/mL
